Source: the supplement of paper PMC10307832

Tests used:
Test in all cases: relative viability (nuclei count vs DMSO), 5 days (fraction); higher = more cells survive
Trametinib + Pictilisib = compound: CC(=O)Nc1cccc(-n2c(=O)n(C3CC3)c(=O)c3c(Nc4ccc(I)cc4F)n(C)c(=O)c(C)c32)c1 [Trametinib] + CS(=O)(=O)N1CCN(Cc2cc3nc(-c4cccc5[nH]ncc45)nc(N4CCOCC4)c3s2)CC1 [Pictilisib] (partner 1 µM)
How it was run: (§1)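 Relative viability was taken as the ratio of nuclei in treated wells to nuclei in vehicle wells. Lung cancer cell lines in 1536-well plates received compounds by pin tool one day after seeding, either one drug alone or a fixed anchor-drug dose plus five library-drug doses (not always all listed) in √10 steps. Nuclei were counted on 4× images after 5 days of treatment, and values are medians of duplicate plates.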

[1] = compound: CN1C=C(C2=CC=CC=C21)/C=C\3/C4=C(C=CC=N4)NC3=O + COc1cc2c(Oc3ccc(NC(=O)C4(C(=O)Nc5ccc(F)cc5)CC4)cc3F)ccnc2cc1OCCCN1CCOCC1 [Foretinib] (partner 0.25 µM)
How it was run: as §1

[2] = compound: CN1C=C(C2=CC=CC=C21)/C=C\3/C4=C(C=CC=N4)NC3=O + Cc1nc(NC(=O)N2CCC[C@H]2C(N)=O)sc1-c1ccnc(C(C)(C)C(F)(F)F)c1 [Alpelisib] (partner 2 µM)
How it was run: as §1

Trametinib + Phenformin = compound: CC(=O)Nc1cccc(-n2c(=O)n(C3CC3)c(=O)c3c(Nc4ccc(I)cc4F)n(C)c(=O)c(C)c32)c1 [Trametinib] + N=C(N)NC(=N)NCCc1ccccc1 [Phenformin] (partner 250 µM)
How it was run: as §1

Question: Which relative viability (Trametinib + Pictilisib; first compound 0.0025 µM) does the source give for UMC-11 here?
Answer: 0.662

Question: What about the relative viability (Trametinib + Pictilisib; first compound 0.007906 µM) of the same cell line?
Answer: 0.785

Question: What about the relative viability (Trametinib + Pictilisib; first compound 0.025 µM) of the same cell line?
Answer: 0.297

Question: And the relative viability (Trametinib + Pictilisib; first compound 0.07906 µM)?
Answer: 0.709

Question: What about the relative viability (Trametinib + Pictilisib; first compound 0.25 µM) of the same cell line?
Answer: 0.663

Question: What about the relative viability ([1]; first compound 0.02 µM) of the same cell line?
Answer: 0.835

Question: And the relative viability ([1]; first compound 0.06325 µM)?
Answer: 0.979

Question: And the relative viability ([1]; first compound 0.2 µM)?
Answer: 1.06

Question: And the relative viability ([1]; first compound 0.6325 µM)?
Answer: 1.14

Question: And the relative viability ([1]; first compound 2 µM)?
Answer: 1.29

Question: What about the relative viability ([2]; first compound 0.02 µM) of the same cell line?
Answer: 0.725

Question: What about the relative viability ([2]; first compound 0.06325 µM) of the same cell line?
Answer: 1.02

Question: And the relative viability ([2]; first compound 0.2 µM)?
Answer: 1.01

Question: And the relative viability ([2]; first compound 0.6325 µM)?
Answer: 1.05

Question: And the relative viability ([2]; first compound 2 µM)?
Answer: 1.12

Question: And the relative viability (Trametinib + Phenformin; first compound 0.0025 µM)?
Answer: 0.366

Question: And the relative viability (Trametinib + Phenformin; first compound 0.007906 µM)?
Answer: 0.328

Question: And the relative viability (Trametinib + Phenformin; first compound 0.025 µM)?
Answer: 0.28

Question: What about the relative viability (Trametinib + Phenformin; first compound 0.07906 µM) of the same cell line?
Answer: 0.309

Question: What about the relative viability (Trametinib + Phenformin; first compound 0.25 µM) of the same cell line?
Answer: 0.291
